Measurements: patent publication US20250368649A1, “TETRAHYDROPYRIDOPYRIMIDINE PAN-KRAS INHIBITORS” (Mirati Therapeutics, Inc., priority 2022, published 2025)

Key:
MKN1 cells = experiment: Inhibition of KRas-mediated phosphorylation of ERK (Cisbio HTRF pERK), MKN1 cells; type: cell-based; conditions: Homo sapiens, MKN-1, 3 hr compound incubation
Summary of the method: (§1)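 Day 1: 6,000 cells/well plated, RPMI + 10% FBS.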

A549 cells = experiment: Inhibition of KRas-mediated phosphorylation of ERK (Cisbio HTRF pERK), A549 cells; type: cell-based; conditions: Homo sapiens, A549, 3 h, 3 hr compound incubation
ASPC1 cells = experiment: Inhibition of KRas-mediated phosphorylation of ERK (Cisbio HTRF pERK), ASPC1 cells; type: cell-based; conditions: Homo sapiens, ASPC1, 3 h, AsPC-1 cells; 3 hr compound incubation
KRas G12S = KRas G12S (Homo sapiens, UniProt P01116, G12S); type: binding; conditions: TR-FRET displacement, read-out: Binding to KRas (IC50 nM) G12S
H460 cells = experiment: Inhibition of KRas-mediated phosphorylation of ERK (Cisbio HTRF pERK), H460 cells; type: cell-based; conditions: Homo sapiens, NCI-H460, 3 h, 3 hr compound incubation
KRas WT = KRas WT (Homo sapiens, UniProt P01116); experiment: KRas binding assay (TR-FRET displacement), KRas WT; conditions: TR-FRET displacement
H2009 cells = experiment: Inhibition of KRas-mediated phosphorylation of ERK (Cisbio HTRF pERK), H2009 cells; type: cell-based; conditions: Homo sapiens, NCI-H2009, 3 hr compound incubation
KRas G12C = KRas G12C (Homo sapiens, UniProt P01116, G12C); type: binding; conditions: TR-FRET displacement, read-out: Binding to KRas (IC50 nM) G12C
H358 cells = experiment: Inhibition of KRas-mediated phosphorylation of ERK (Cisbio HTRF pERK), H358 cells; type: cell-based; conditions: Homo sapiens, NCI-H358, 3 h, 3 hr compound incubation
H727 cells = experiment: Inhibition of KRas-mediated phosphorylation of ERK (Cisbio HTRF pERK), H727 cells; type: cell-based; conditions: Homo sapiens, NCI-H727, 3 h, 3 hr compound incubation
KRas G12D = KRas G12D (Homo sapiens, UniProt P01116, G12D); experiment: biochemical; conditions: Binding to KRas (IC50 nM) G12D, TR-FRET displacement, KRas G12D
PSN1 cells = experiment: Inhibition of KRas-mediated phosphorylation of ERK (Cisbio HTRF pERK), PSN1 cells; type: cell-based; conditions: Homo sapiens, PSN1, 3 h, 3 hr compound incubation
Summary of the method: as §1

KRas G12V = KRas G12V (Homo sapiens, UniProt P01116, G12V); experiment: biochemical; conditions: Binding to KRas (IC50 nM) G12V, TR-FRET displacement, KRas G12V
HCT116 cells = experiment: Inhibition of KRas-mediated phosphorylation of ERK (Cisbio HTRF pERK), HCT116 cells; type: cell-based; conditions: Homo sapiens, HCT-116, 3 h, 3 hr compound incubation

KRas G12C, sequence (P01116 1-169 isoform P01116-2 G12C): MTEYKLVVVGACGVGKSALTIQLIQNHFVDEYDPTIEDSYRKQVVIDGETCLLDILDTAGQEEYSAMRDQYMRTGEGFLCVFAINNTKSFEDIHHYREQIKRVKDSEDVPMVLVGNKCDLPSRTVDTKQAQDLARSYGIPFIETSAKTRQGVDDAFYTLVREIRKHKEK
KRas G12D, sequence (P01116 1-169 isoform P01116-2 G12D): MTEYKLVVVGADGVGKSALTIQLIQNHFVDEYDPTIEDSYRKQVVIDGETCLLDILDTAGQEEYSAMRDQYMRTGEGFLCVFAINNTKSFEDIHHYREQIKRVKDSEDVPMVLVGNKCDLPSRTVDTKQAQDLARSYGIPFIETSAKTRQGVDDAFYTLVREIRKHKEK
KRas G12S, sequence (P01116 1-169 isoform P01116-2 G12S): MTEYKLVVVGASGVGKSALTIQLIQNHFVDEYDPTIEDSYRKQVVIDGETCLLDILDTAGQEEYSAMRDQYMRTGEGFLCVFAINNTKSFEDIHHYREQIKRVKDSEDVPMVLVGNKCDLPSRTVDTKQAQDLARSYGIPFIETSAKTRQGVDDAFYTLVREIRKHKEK
KRas WT, sequence (P01116 1-169 isoform P01116-2): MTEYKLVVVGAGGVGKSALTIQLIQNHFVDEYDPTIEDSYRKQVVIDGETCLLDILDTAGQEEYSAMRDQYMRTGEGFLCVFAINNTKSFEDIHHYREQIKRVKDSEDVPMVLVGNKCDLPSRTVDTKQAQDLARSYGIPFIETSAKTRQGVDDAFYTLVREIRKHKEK
KRas G12V, sequence (P01116 1-169 isoform P01116-2 G12V): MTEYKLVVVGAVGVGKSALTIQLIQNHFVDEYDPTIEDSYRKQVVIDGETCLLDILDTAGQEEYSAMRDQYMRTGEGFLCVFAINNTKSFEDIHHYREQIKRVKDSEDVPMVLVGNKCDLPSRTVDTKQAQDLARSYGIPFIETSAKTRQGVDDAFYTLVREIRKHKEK

IC50 (MKN1 cells): 10.5 nM
IC50 (A549 cells): 92 nM
IC50 (ASPC1 cells): 51 nM
IC50 (KRas G12S): < 2 nM
IC50 (H460 cells): 127 nM
IC50 (KRas WT): < 2 nM
IC50 (H2009 cells): 17 nM
IC50 (KRas G12C): < 2 nM
IC50 (H358 cells): 29 nM
IC50 (H727 cells): 67 nM
IC50 (KRas G12D): 2 nM
IC50 (PSN1 cells): 1800 nM
IC50 (KRas G12V): < 2 nM
IC50 (HCT116 cells): 253 nM
Structure (SMILES): C=C1CN2CCCC2(COc2nc3c(c(N4CCCC5(CCO5)C4)n2)CCN(c2cc(O)cc4ccc(F)c(CC)c24)C3)C1 (centres unmarked) [Example 713, 5-ethyl-6-fluoro-4-(2-((2-methylenetetrahydro-1H-pyrrolizin-7a(5H)-yl)methoxy)-4-(1-oxa-6-azaspiro[3.5]nonan-6-yl)-5,8-dihydropyrido[3,4-d]pyrimidin-7(6H)-yl)naphthalen-2-ol]
